Data: patent US3954767A, “Piperazine salts of 2,5-dihydroxy benzene sulfonic acid mono- and diesters” (priority 1972, dated 1976)
Counter-ions that a name gives are not always drawn.

Columns and labels:
[1] = test system: rats treated with Triton WR-1339; experiment: Hypolipemic action on the rat, Triton WR-1339 method; assay type: in vivo; details: for Percentage reduction of lipids: Cholesterol / Percentage reduction of lipids: Total Lipids / Percentage reduction of lipids: Triglycerides: Table VI, with respect to Triton WR-1339
Experimental: The above-mentioned Triton WR-1339 method was selected. The total cholesterol, triglycerides and total lipids were determined in the serum. The amount of Triton WR-1339 administered to the animals was 300 mg/kg. The amount of piperazine 2,5-dihydroxy benzene sulfonate mono-tosylate administered was 2 mMoles/Kg orally. The letter P signifies probability.
The above-mentioned Triton WR-1339 method was selected. The total cholesterol, triglycerides and total lipids were determined in the serum. The results obtained are given in Table V. The amount of Triton WR-1339 administered to the animals was 300 mg/Kg. The amount of the piperazine salt with one mole of the di-0-(p-chloro phenoxy isobutyrate) of 2,5-dihydroxy benzene sulfonic acid administered was 1 mMol/Kg orally. The letter P signifies probability.
In this Triton WR-1339 method, all the compounds are administered at a dose of 2 mMoles/Kg orally excepted those compounds in which is the residue of p-chlorophenoxy isobutyric acid, which are administered orally at a dose corresponding to 2 mMoles of R per Kg, i.e. the amount used is calculated on the basis of the residue R only.

[2] = Acute toxicity (LD50), mouse, oral, method of Reed and Muench; assay type: in vivo, mouse (albino); details: mouse, in vivo, po, Table VI; species and route not printed in table (mouse per b12); read-out: LD50 (medium lethal dose)
Experimental: The acute toxicities for the mouse are also very low. The medium lethal dose (LD50) for the mouse was determined according to the modified method of Reed and Muench (Reed L. J. & Muench H., Am. J. Hyg., 27, 493, 1938).
1. ACUTE TOXICITY IN THE MOUSE AND RAT
18 to 25 gr albino mouse.
The LD50 was determined according to the method of Reed and Muench. […]

[3] = orally, 2 mMoles of R (p-chlorophenoxy isobutyric acid residue) per Kg
[4] = orally, 2 mMoles of R (p-chlorophenoxy isobutyric acid residue) per Kg, dihydrate
[5] = Triton 300 mg/Kg + compound 1 mMol/Kg orally, 0,005<P<0,010

Structure (SMILES)	Percentage reduction of lipids: Cholesterol [1, 3] [%]	Percentage reduction of lipids: Total Lipids [1, 3] [%]	Percentage reduction of lipids: Triglycerides [1, 3] [%]	Percentage reduction of lipids: Cholesterol ([1]; 2 mMoles/Kg orally) [%]	Percentage reduction of lipids: Total Lipids ([1]; 2 mMoles/Kg orally) [%]	Percentage reduction of lipids: Triglycerides ([1]; 2 mMoles/Kg orally) [%]	also measured
CC(C)(Oc1ccc(Cl)cc1)C(=O)Oc1ccc(OC(=O)C(C)(C)Oc2ccc(Cl)cc2)c(S(=O)(=O)O)c1 [calcium salt of di-O-(p-chloro phenoxy isobutyrate) of 2,5-d] [calcium salt of di-O-(p-chlorophenoxy isobutyrate) of 2,5-dihydroxy benzene sulfonic acid]	27	29	33				
CC(C)(Oc1ccc(Cl)cc1)C(=O)Oc1ccc(O)c(S(=O)(=O)O)c1 [calcium salt of mono-O-(p-chloro phenoxy isobutyrate) of 2,5] [calcium salt of mono-O-(p-chlorophenoxy isobutyrate) of 2,5-dihydroxybenzene sulfonic acid]	27	26	40				
CC(C)(Oc1ccc(Cl)cc1)C(=O)Oc1ccc(O)c(S(=O)(=O)O)c1 [di-salt of piperazine of mono-O-(p-chloro phenoxy isobutyrat] [di-salt of piperazine of mono-O-(p-chlorophenoxy isobutyrate) of 2,5-dihydroxy benzene sulfonic acid]	16	26	31				
O=C(Oc1ccc(OC(=O)c2ccccc2)c(S(=O)(=O)O)c1)c1ccccc1 [diethylamine 2,5-dihydroxybenzenesulfonate dibenzoate] [diethylamine 2.5-dihydroxybenzensulphonate dibenzoate]				12	22	14	
CC(C)(Oc1ccc(Cl)cc1)C(=O)Oc1ccc(O)cc1S(=O)(=O)O [magnesium 2-O-(p-chlorophenoxyisobutyryl) 2,5-dihydroxybenzene sulfonate dihydrate]							Percentage reduction of lipids: Cholesterol [1, 4]: 18%; Percentage reduction of lipids: Total Lipids [1, 4]: 27%; Percentage reduction of lipids: Triglycerides [1, 4]: 21%
CC(C)(Oc1ccc(Cl)cc1)C(=O)Oc1ccc(O)c(S(=O)(=O)O)c1 [magnesium salt of mono-O-(p-chloro phenoxy isobutyrate) of 2] [magnesium salt of mono-O-(p-chlorophenoxy isobutyrate) of 2,5-dihydroxy benzene sulfonic acid]	19	28	44				
CC(C)(Oc1ccc(Cl)cc1)C(=O)Oc1ccc(O)c(S(=O)(=O)O)c1 [mono-p-chloro phenoxy isobutyrate of pyridine 2,5-dihydroxy benzene sulfonate]							LD50 [2]: 900 mg/kg
CC(C)(Oc1ccc(Cl)cc1)C(=O)Oc1ccc(O)c(S(=O)(=O)O)c1 [mono-salt of piperazine of mono-O-(p-chloro phenoxy isobutyr] [mono-salt of piperazine of mono-O-(p-chlorophenoxy isobutyrate) of 2,5-dihydroxy benzene sulfonic acid]	9	25	49				
O=C(Oc1ccc(OC(=O)c2ccccc2)c(S(=O)(=O)O)c1)c1ccccc1 [morpholine 2,5-dihydroxybenzenesulfonate dibenzoate] [morpholine 2.5-dihydroxybenzenesulphonate dibenzoate]				12	21	17	
O=C(Oc1ccc(OC(=O)c2ccccc2)c(S(=O)(=O)O)c1)c1ccccc1 [morpholine 2.5-dihydroxybenzenesulphonate dibenzoate]							LD50 [2]: 4000 mg/kg
O=C(Oc1ccc(OC(=O)c2ccccc2)c(S(=O)(=O)O)c1)c1ccccc1 [piperazine 2,5-dihydroxybenzenesulfonate dibenzoate] [piperazine 2.5-dihydroxybenzenesulphonatedibenzoate]				13	20	18	
O=C(Oc1ccc(OC(=O)c2ccccc2)c(S(=O)(=O)O)c1)c1ccccc1 [piperazine bis(2,5-dihydroxybenzene sulfonate dibenzoate)] [piperazine bis(2.5-dihydroxybenzenesulphonate dibenzoate)]				9	16	14	
Cc1ccc(S(=O)(=O)Oc2ccc(O)c(S(=O)(=O)O)c2)cc1 [piperazine bis(2,5-dihydroxybenzenesulfonate monotosylate)] [piperazine bis(2.5-dihydroxybenzenesulphonate monotosylate)]				11	17	25	
CC(C)(Oc1ccc(Cl)cc1)C(=O)Oc1ccc(OC(=O)C(C)(C)Oc2ccc(Cl)cc2)c(S(=O)(=O)O)c1 [piperazine di-salt of di-O-(p-chloro phenoxy isobutyrate) of] [piperazine di-salt of di-O-(p-chlorophenoxy isobutyrate) of 2,5-dihydroxy benzene sulfonic acid]	29	37	21				
CC(C)(Oc1ccc(Cl)cc1)C(=O)Oc1ccc(OC(=O)C(C)(C)Oc2ccc(Cl)cc2)c(S(=O)(=O)O)c1 [piperazine mono-salt of di-O-(p-chloro phenoxy isobutyrate) ] [piperazine mono-salt of di-O-(p-chlorophenoxy isobutyrate) of 2,5-dihydroxy benzene sulfonic acid]	25	28	49				total cholesterol ([1]; Triton 300 mg/Kg + compound 1 mMol/Kg orally, 0,0025<P<0,005): 212,5 mg % ml of plasma; total lipids [1, 5]: 1503,8 mg % ml of plasma; triglycerides [1, 5]: 572,5 mg % ml of plasma
O=C(Oc1ccc(OC(=O)c2ccccc2)c(S(=O)(=O)O)c1)c1ccccc1 [piperidine 2,5-dihydroxybenzenesulfonate dibenzoate] [piperidine 2.5-dihydroxybenzenesulphonate dibenzoate]				14	23	19	
Cc1ccc(S(=O)(=O)Oc2ccc(O)c(S(=O)(=O)O)c2)cc1 [piperidine 2.5-dihydroxybenzenesulphonate monotosylate]							LD50 [2]: 5000 mg/kg
Cc1ccc(S(=O)(=O)Oc2ccc(O)c(S(=O)(=O)O)c2)cc1 [piperidine bis(2,5-dihydroxybenzenesulfonate monotosylate)] [piperidine 2.5-dihydroxybenzenesulphonate monotosylate]				15	33	26	
O=C(Oc1ccc(O)c(S(=O)(=O)O)c1)c1cccnc1 [pyridine 2,5-dihydroxybenzene sulfonate mono nicotinate]				17	25	24	
CC(C)(Oc1ccc(Cl)cc1)C(=O)Oc1ccc(O)c(S(=O)(=O)O)c1 [pyridine 2,5-dihydroxybenzenesulfonate mono-p-chloro phenoxy] [mono-p-chloro phenoxy isobutyrate of pyridine 2,5-dihydroxy benzene sulfonate]	16	23	27				
CC(C)(Oc1ccc(Cl)cc1)C(=O)Oc1ccc(OC(=O)C(C)(C)Oc2ccc(Cl)cc2)c(S(=O)(=O)O)c1 [pyridine salt of di-O-(p-chloro phenoxy isobutyrate) of 2,5-] [pyridine salt of the di-O-(p-chlorophenoxy isobutyrate) of 2,5-dihydroxy benzene sulfonic acid]	20	31	32				
O=C(Oc1ccc(OC(=O)c2ccccc2)c(S(=O)(=O)O)c1)c1ccccc1 [sodium 2,5-dihydroxybenzenesulfonate dibenzoate] [sodium 2.5-dihydroxybenzenesulphonate dibenzoate]				12	20	17	
Cc1ccc(S(=O)(=O)Oc2ccc(O)c(S(=O)(=O)O)c2)cc1 [sodium 2,5-dihydroxybenzenesulfonate monotosylate] [sodium 2,5-dihydroxy benzene sulfonate mono-tosylate]				10	39	36	
